According to patent US9448170B2 (priority 2003, dated 2016):
“And” between values parts separate entries of the source, which are not always exact repeats. Equal values may be shown once.

Tests used:
[1] = test system: Spirulina platensis; assay type: cell-based
[2] = test system: Selenastrum capricomutum; test: Delayed fluorescence Curve / VCurve values with green algae photosynthetic sample; assay type: cell-based; conditions: simazine 25, 50, 100 ppb, dichlorophenol 1, 5, 10 ppm, 0.1 to 50 seconds after excitation; for Curve values variation with an increase in concentration: FIG. 37; for VCurve values variation with an increase in concentration: FIG. 38
Description: Meanwhile, if characteristic points are not present in a delayed fluorescence decay curve, the Curve values, determined for the entirety or a predetermined range of the decay curve, may be used as comparison values for carrying out the assay. Here, the Curve value at each measurement point n in a temporal variation of the light amount of delayed fluorescence is determined by: (amount of light emitted from the test measurement solution at measurement point n)−(amount of light emitted from the standard measurement solution at measurement point n).
In such a case, it is effective to use VCurve values, each being standardized by being determined as a ratio of a Curve value, which is a value obtained by determining a difference of the temporal variations of the light amount of delayed fluorescence acquired for the test measurement solution and the standard measurement solution, with respect to a light amount of delayed fluorescence acquired for the test measurement solution or the standard measurement solution (preferably, a light amount of delayed fluorescence acquired for the standard measurement solution), as the comparison values. The evaluation of variations within different time ranges is thereby facilitated. Here, in a temporal variation of the light amount of delayed fluorescence, the VCurve value at each measurement point n is determined as (Curve value at measurement point n)/(amount of light emitted from the standard measurement solution at measurement point n)×100.
FIG. 36 is a diagram of an example of a method of computing the Curve values when no characteristics points exist in a delayed fluorescence decay curve. Here, a delayed fluorescence decay curve of a standard measurement solution using Selenastrum capricomutum, which is a green algae and has been grown by a general method at a light intensity of 50 μmol/m^2/s under a white fluorescence lamp, as the photosynthetic sample is shown. Preparation of the sample is carried out in the same manner as in the case of Spirulina platensis. […] In such a case, assay using the Curve values is effective because assay that makes note of characteristic points cannot be made.
Specifically, graph (a) of FIG. 37 is a graph of the Curve values computed from the measurement results of test measurement solutions exposed to simazine, which is a herbicide, at concentrations of 25, 50, and 100 ppb and the measurement results of the standard measurement solution for a time range of 0.1 seconds to 50 seconds after excitation. Graph (b) is a graph of the Curve values computed from the measurement results of test measurement solutions exposed to dichlorophenol at concentrations of 1, 5, and 10 ppm and the measurement results of the standard measurement solution for a time range of 0.1 seconds to 50 seconds after excitation. […]

| Compound | Curve value variation as the concentration becomes higher [1] | VCP1 value [1] | VCP2 value [1] | VTP2 value [1] | variation of the VCP1 value with respect to concentration [1] | variation of the VCP2 value with respect to concentration [1] | variation of the VTP2 value with respect to concentration [1] | Curve values variation with an increase in concentration [2] | VCurve values variation with an increase in concentration [2] | VCP1 value after the activated carbon adsorption treatment [1] |
| --- | --- | --- | --- | --- | --- | --- | --- | --- | --- | --- |
| CCNc1nc(Cl)nc(NC(C)C)n1 [atrazine] | varies in the positive direction at around 1 second after excitation and then varies in the negative direction at around 3 to 4 seconds after excitation | 106.4 | 90.0 | 100.0 | increases | decreases | decreases slightly | – | – | – |
| CCNc1nc(Cl)nc(NCC)n1 [simazine] | – | – | – | – | – | – | – | vary in the positive direction near 0.1 seconds after excitation | vary in the positive direction near 0.1 to 0.3 seconds after excitation | – |
| dichlorophenol | – | – | – | – | – | – | – | vary in the negative direction near 0.2 to 10 seconds after excitation | vary in the negative direction widely over the entire range | – |
| C[n+]1ccc(-c2cc[n+](C)cc2)cc1 [paraquat] | varies in the negative direction at around 1 to 4 seconds after excitation | – | – | – | decreases slightly | decrease | decrease | – | – | – |
| [Hg+2] [Hg2+, inorganic mercury] | varies in the positive direction at around 1 to 2 seconds after excitation | – | – | – | does not change much with an increase in the inorganic mercury concentration at low inorganic mercury concentration, at high inorganic mercury concentration, the VCP1 value increases | decreases | increases | – | – | – |
| CN(C)C(=O)Nc1ccc(Cl)c(Cl)c1 [DCMU, DCMU (diuron)] | varies in positive direction at around 1 second after excitation and then varies in the negative direction at around 3 to 5 seconds after excitation | 116.0 and 125.6 and 120.9 | 88.0 and 84.6 | 100.0 and 101.5 | increases | decreases | hardly changes | – | – | 96.3 |
